Experimental findings from patent US20230293404A1, “Compositions Comprising Natural Polymers and One or More (Bio)-Alkanediols” (Symrise AG, priority 2020, published 2023) are described below.

Data set [1] can be described thus: Physical state of alkanediols and alkanediol mixtures at RTP. It is filed as physicochemical. The settings on record: at RTP (room temperature, normal pressure); FIG. 3 and FIG. 4. The text has this:
The term “liquid alkanediol” within the context of the present invention means an alkanediol component which is liquid at room or ambient temperature and under normal pressure, i.e. standard RTP conditions.
FIG. 3 is a photograph showing from left to right samples of the liquid 1,2-pentanediol, 1,2-hexanediol, 1,2-heptanediol, 2,3-heptanediol, 2,3-octanediol and 2,3-undecanediol in comparison to the solid 1,2-octanediol, 1,2-undecanediol, 1,2-nonanediol and the liquid 2,3-nonanediol. The first six alkanediols are liquid at RTP, whereas 1,2-octanediol, 1,2-nonanediol and 1,2-undecanediol are solid substances at RTP; 2,3-nonanediol is also liquid at RTP.
FIG. 4 is a representative photograph of samples of mixtures of 1,2-alkanediols with the respective 2,3-alkanediol. All mixtures are liquid. They are shown in the following order: 1,2-heptanediol (95%)+2,3-heptanediol (5%), 1,2-octanediol (95%)+2,3-octanediol (5%), and 1,2-nonanediol (95%)+2,3-nonanediol (5%).

Data set [2] is described as follows: Maximum solubility of alkanediols in water (visual assessment). The class given is physicochemical. To be noted: assessed at ambient temperature after 24 h storage at 5° C.; visual observation.
From the text: The water solubility of a substance is the saturation mass concentration of the substance in water at a given temperature. The determination of the solubility in water relates to essentially pure substances which are stable in water and not volatile.
For the determination of the maximum water solubility of an alkanediol, water and different concentrations of the respective alkanediol were blended by stirring. […] The determination of whether the alkanediol has dissolved in water is based entirely on visual observation.
Data set [3] concerns microbial load of natural polymers. Kind of data set: Microbial load of mixtures of natural polymers with alkanediols (plating, CFU count). It is filed as cell-based, bacteria. Here is the method: The following tests were performed to show the influence of different alkanediols on the microbial load of natural polymers.
A selection of natural polymers as specified in Table 1 was systematically analyzed in combination with different 1,2-alkanediols and 2,3-alkanediols (0.5%). The polymers were chosen to be representative from different polymer classes:
A mixture of the natural polymer (concentration as recommended by supplier) with water and 1,2-alkanediol (0.5%) or 2,3-alkanediol (0.5%) or a mixture of 1,2-alkanediol and 2,3-alkanediol (0.5% final concentration) was prepared, as representative of a cold formulation preparation processes, and directly sampled for determination of microbial load. Additionally, the mixtures were stored at 40° C. and again sampled for microbial load after 2 days and 7 days.
The microbial load of the mixtures was determined by plating 1000 μl (or respective dilutions of the material) on an agar plate based on universal bacterial growth medium (Caseinpepton-Sojamehlpepton-Bouillon, Merck 1.05459+Agar No. 1, Oxoid LP0011). The plates were then incubated at 37° C. for 5 days and then photo documented. In parallel, bacterial colonies were counted (CFU—colony forming units per ml).

Where [4] appears, read: Covathick (2009, cellulose 0.5%) in water + 0.5% 1,2-alkanediol, 2 days storage at 40° C.
Setting [5] is: Covathick (2009, cellulose 0.5%) in water + 0.5% 1,2-alkanediol, 7 days storage at 40° C.
[6] abbreviates: Covathick (2009, cellulose 0.5%) in water + 0.5% 1,2-alkanediol, fresh.
Setting [7] is: Genuvisco (CG-131, carrageenan 0.5%) in water + 0.5% 1,2-alkanediol, 2 days storage at 40° C.
Setting [8] is: Genuvisco (CG-131, carrageenan 0.5%) in water + 0.5% 1,2-alkanediol, 7 days storage at 40° C.
Setting [9] is: Genuvisco (CG-131, carrageenan 0.5%) in water + 0.5% 1,2-alkanediol, fresh.
Where [10] appears, read: Nativacare (5600, corn starch 3%) in water + 0.5% 1,2-alkanediol, 2 days storage at 40° C.
Where [11] appears, read: Nativacare (5600, corn starch 3%) in water + 0.5% 1,2-alkanediol, 7 days storage at 40° C.
[12] abbreviates: Nativacare (5600, corn starch 3%) in water + 0.5% 1,2-alkanediol, fresh.
Setting [13] is: Polycos-N 75 (guar gum 0.5%) in water + 0.5% 1,2-alkanediol, 2 days storage at 40° C.
Where [14] appears, read: Polycos-N 75 (guar gum 0.5%) in water + 0.5% 1,2-alkanediol, 7 days storage at 40° C.
[15] abbreviates: Polycos-N 75 (guar gum 0.5%) in water + 0.5% 1,2-alkanediol, fresh.
Setting [16] is: Xanthan Gum (Rheocare XGN 0.5%) in water + 0.5% 1,2-alkanediol, 2 days storage at 40° C.
[17] abbreviates: Xanthan Gum (Rheocare XGN 0.5%) in water + 0.5% 1,2-alkanediol, fresh.

Each structure is given as a SMILES string.

As for `CCCCCC(O)CO` (centres unmarked) [1,2-heptanediol], in data set [1], the Physical state entry is listed as “liquid”. In addition, the “Maximum solubility in water” value in data set [2] stood at 2.5 % by weight. For the same compound, the “Bacterial load (colony forming units)” value worked out at 0 CFU per ml in data set [3] (setting [4]); 0 CFU per ml in data set [3] (setting [5]); 4 CFU per ml in data set [3] (setting [6]); 0 CFU per ml in data set [3] (setting [7]); 0 CFU per ml in data set [3] (setting [8]); 0 CFU per ml in data set [3] (setting [9]). Also, the “Bacterial load (colony forming units)” value in data set [3] (setting [10]) is 0 CFU per ml; in data set [3] (setting [11]), 0 CFU per ml; in data set [3] (setting [12]), 0 CFU per ml; in data set [3] (setting [13]), 0 CFU per ml; in data set [3] (setting [14]), 0 CFU per ml; in data set [3] (setting [15]), 5 CFU per ml. Also, the “Bacterial load (colony forming units)” value in data set [3] (Table 4: Covathick (0.5%) in water + alkanediol or mixture, 0.5% total, 2 days storage at 40° C.) came to 0 CFU per mL; in data set [3] (Table 4: Covathick (0.5%) in water + alkanediol or mixture, 0.5% total, 7 days storage at 40° C.), 0 CFU per mL; in data set [3] (Table 4: Covathick (0.5%) in water + alkanediol or mixture, 0.5% total, fresh), 4 CFU per mL; in data set [3] (Table 4: PolyCos N-75 (0.5%) in water + alkanediol or mixture, 0.5% total, 2 days storage at 40° C.) it was 0 CFU per mL; in data set [3] (Table 4: PolyCos N-75 (0.5%) in water + alkanediol or mixture, 0.5% total, 7 days storage at 40° C.), 0 CFU per mL; in data set [3] (Table 4: PolyCos N-75 (0.5%) in water + alkanediol or mixture, 0.5% total, fresh), 5 CFU per mL. The “Bacterial load (colony forming units)” value is 2 CFU per mL in data set [3] (Table 4: Xanthan Gum (0.5%) in water + alkanediol or mixture, 0.5% total, 2 days storage at 40° C.); 0 CFU per mL in data set [3] (Table 4: Xanthan Gum (0.5%) in water + alkanediol or mixture, 0.5% total, 7 days storage at 40° C.); 0 CFU per mL in data set [3] (Table 5: Covathick (0.5 %) in water + alkanediol or mixture, 0.5% total, 2 days storage at 40° C.); 0 CFU per mL in data set [3] (Table 5: Covathick (0.5 %) in water + alkanediol or mixture, 0.5% total, 7 days storage at 40° C.); 4 CFU per mL in data set [3] (Table 5: Covathick (0.5 %) in water + alkanediol or mixture, 0.5% total, fresh); 0 CFU per mL in data set [3] (Table 5: PolyCos N-75 (0.5 %) in water + alkanediol or mixture, 0.5% total, 2 days storage at 40° C.). Besides, the “Bacterial load (colony forming units)” value in data set [3] (Table 5: PolyCos N-75 (0.5 %) in water + alkanediol or mixture, 0.5% total, 7 days storage at 40° C.) is given as 0 CFU per mL; in data set [3] (Table 5: PolyCos N-75 (0.5 %) in water + alkanediol or mixture, 0.5% total, fresh) it was 5 CFU per mL; in data set [3] (Table 5: Xanthan Gum (0.5 %) in water + alkanediol or mixture, 0.5% total, 2 days storage at 40° C.), 2 CFU per mL; in data set [3] (Table 5: Xanthan Gum (0.5 %) in water + alkanediol or mixture, 0.5% total, 7 days storage at 40° C.), 0 CFU per mL; in data set [3] (setting [16]), 2 CFU per ml; in data set [3] (Xanthan Gum (Rheocare XGN 0.5%) in water + 0.5% 1,2-alkanediol, 7 days storage at 40° C.) it was 0 CFU per ml. For the same compound, the “Activity to stabilize natural polymer solutions for storage by removing their microbial load (in words)” value in data set [3] (compared to 1,2-pentanediol and 1,2-hexanediol, Table 2) is on record as “superior activity”.

As to `CCCCC(O)CO` (centres unmarked) [1,2-hexanediol], in data set [1], the Physical state entry was “liquid”. Also, in data set [2], the “Maximum solubility in water” value turned out to be 50 % by weight. Moreover, the “Bacterial load (colony forming units)” value is 0 CFU per ml in data set [3] (setting [4]); more than 13 CFU per ml in data set [3] (setting [5]); 3 CFU per ml in data set [3] (setting [6]); 0 CFU per ml in data set [3] (setting [8]); 3 CFU per ml in data set [3] (setting [9]); 0 CFU per ml in data set [3] (setting [10]). The “Bacterial load (colony forming units)” value in data set [3] (setting [11]) is 0 CFU per ml; in data set [3] (setting [12]) it was 1 CFU per ml; in data set [3] (setting [13]) it was 19 CFU per ml; in data set [3] (setting [14]) it was 2 CFU per ml; in data set [3] (setting [15]) it was 9 CFU per ml; in data set [3] (setting [16]), 1 CFU per ml. Also, the “Bacterial load (colony forming units)” value in data set [3] (setting [17]) came to 7 CFU per ml.

For the compound `CCCCCCCC(O)CO` (centres unmarked) [1,2-nonanediol], the Physical state entry in data set [1] was “solid”. Further, the “Maximum solubility in water” value in data set [2] stood at 0.1 % by weight.

Take `CCCCCCC(O)CO` (centres unmarked) [1,2-octanediol]: the Physical state result in data set [1] is on record as “solid”. Moreover, the “Maximum solubility in water” value in data set [2] is 0.5 % by weight.

With `CCCC(O)CO` (centres unmarked) [1,2-pentanediol], the Physical state result in data set [1] was “liquid”. Also, in data set [2], the “Maximum solubility in water” value is given as 50 % by weight. Further, the “Bacterial load (colony forming units)” value in data set [3] (setting [4]) was more than 13 CFU per ml; in data set [3] (setting [5]), 4 CFU per ml; in data set [3] (setting [6]) it was 84 CFU per ml; in data set [3] (setting [7]) it was 2800 CFU per ml; in data set [3] (setting [8]), 0 CFU per ml; in data set [3] (setting [9]) it was 35 CFU per ml. The “Bacterial load (colony forming units)” value in data set [3] (setting [10]) is listed as 27 CFU per ml; in data set [3] (setting [11]), more than 1000 CFU per ml; in data set [3] (setting [12]) it was 0 CFU per ml; in data set [3] (setting [14]), 13 CFU per ml; in data set [3] (setting [15]), 13 CFU per ml; in data set [3] (setting [17]), more than 249 CFU per ml.

As for `CCCCCCCCCC(O)CO` (centres unmarked) [1,2-undecanediol], the Physical state entry in data set [1] is recorded as “solid”.

Take `CCCCCCC(O)C(C)O` (centres unmarked) [2,3-nonanediol]: the Physical state result in data set [1] was “liquid”. Moreover, in data set [2], the “Maximum solubility in water” value came to 0.3 % by weight.

As for `CCCCCCCCC(O)C(C)O` (centres unmarked) [2,3-undecanediol], in data set [1], the Physical state entry is “liquid”. Moreover, the “Bacterial load (colony forming units)” value came to 0 CFU per mL in data set [3] (Covathick (0.5%) in water + 0.5% 2,3-alkanediol, 2 days storage at 40° C.); 0 CFU per mL in data set [3] (Covathick (0.5%) in water + 0.5% 2,3-alkanediol, 7 days storage at 40° C.); 0 CFU per mL in data set [3] (Covathick (0.5%) in water + 0.5% 2,3-alkanediol, fresh); 0 CFU per mL in data set [3] (Genuvisco (0.5%) in water + 0.5% 2,3-alkanediol, 2 days storage at 40° C.); 0 CFU per mL in data set [3] (Genuvisco (0.5%) in water + 0.5% 2,3-alkanediol, 7 days storage at 40° C.); 0 CFU per mL in data set [3] (Genuvisco (0.5%) in water + 0.5% 2,3-alkanediol, fresh). Also, the “Bacterial load (colony forming units)” value in data set [3] (Polycos-N 75 (0.5%) in water + 0.5% 2,3-alkanediol, 2 days storage at 40° C.) was 0 CFU per mL; in data set [3] (Polycos-N 75 (0.5%) in water + 0.5% 2,3-alkanediol, 7 days storage at 40° C.), 0 CFU per mL; in data set [3] (Polycos-N 75 (0.5%) in water + 0.5% 2,3-alkanediol, fresh) it was 0 CFU per mL; in data set [3] (Xanthan Gum (0.5%) in water + 0.5% 2,3-alkanediol, 2 days storage at 40° C.), 0 CFU per mL; in data set [3] (Xanthan Gum (0.5%) in water + 0.5% 2,3-alkanediol, 7 days storage at 40° C.), 0 CFU per mL; in data set [3] (Xanthan Gum (0.5%) in water + 0.5% 2,3-alkanediol, fresh), 0 CFU per mL. For the same compound, the “Effect on the microbial load of the natural polymer solutions (in words)” value in data set [3] (directly after preparation of the mixtures as well as after 7 days storage, Table 3) was “superior antimicrobial activity”.
